Laboratory results published in US20210323977A1, “PYRROLIDINYL AMIDE COMPOUNDS FOR THE TREATMENT OF AUTOIMMUNE DISEASE” (Hoffmann-La Roche Inc., priority 2018, published 2021).
pIC50: −log10 of the molar value.

Target: T1, human TLR9 (Homo sapiens, UniProt Q9NR96)
T1 sequence (Q9NR96 26-1032): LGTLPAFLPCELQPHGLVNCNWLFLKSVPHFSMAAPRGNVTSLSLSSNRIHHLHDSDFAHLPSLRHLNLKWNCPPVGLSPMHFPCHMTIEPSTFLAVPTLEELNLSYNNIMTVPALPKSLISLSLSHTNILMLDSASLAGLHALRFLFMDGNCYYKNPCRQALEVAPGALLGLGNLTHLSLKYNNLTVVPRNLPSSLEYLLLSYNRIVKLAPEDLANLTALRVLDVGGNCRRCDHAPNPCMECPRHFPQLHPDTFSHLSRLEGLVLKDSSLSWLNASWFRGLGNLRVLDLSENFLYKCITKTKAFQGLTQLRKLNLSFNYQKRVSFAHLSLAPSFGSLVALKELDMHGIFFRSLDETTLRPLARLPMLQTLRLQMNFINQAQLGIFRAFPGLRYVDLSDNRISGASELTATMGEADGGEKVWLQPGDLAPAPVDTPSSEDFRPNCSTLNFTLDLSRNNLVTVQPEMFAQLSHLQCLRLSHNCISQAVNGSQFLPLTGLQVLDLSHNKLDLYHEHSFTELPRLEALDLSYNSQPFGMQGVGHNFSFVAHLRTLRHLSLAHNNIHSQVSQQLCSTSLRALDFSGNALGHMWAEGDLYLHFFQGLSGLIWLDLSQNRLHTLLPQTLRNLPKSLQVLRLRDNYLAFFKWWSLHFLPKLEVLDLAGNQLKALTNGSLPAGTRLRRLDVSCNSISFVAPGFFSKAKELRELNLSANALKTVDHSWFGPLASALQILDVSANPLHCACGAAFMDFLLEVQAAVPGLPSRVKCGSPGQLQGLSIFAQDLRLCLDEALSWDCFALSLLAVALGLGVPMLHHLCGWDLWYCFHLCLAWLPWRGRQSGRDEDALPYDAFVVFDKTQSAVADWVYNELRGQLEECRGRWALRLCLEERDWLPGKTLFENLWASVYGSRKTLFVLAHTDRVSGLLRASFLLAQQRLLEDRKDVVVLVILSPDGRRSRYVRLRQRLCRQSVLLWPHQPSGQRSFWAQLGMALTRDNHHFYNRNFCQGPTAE
Assay: HEK293-Blue-hTLR-9 cells assay
Assay type: cell-based
Settings: HEK293-Blue-hTLR9 cells, SEAP reporter, ODN2006 stimulation, 20 hrs
Text: HEK293-Blue-hTLR-9 Cells Assay:
A stable HEK293-Blue-hTLR-9 cell line was purchased from InvivoGen (Cat. #: hkb-htlh9, San Diego, Calif., USA). These cells were originally designed for studying the stimulation of human TLR9 by monitoring the activation of NF-κB. A SEAP (secreted embryonic alkaline phosphatase) reporter gene was placed under the control of the IFN-β minimal promoter fused to five NF-κB and AP-1-binding sites. The SEAP was induced by activating NF-κB and AP-1 via stimulating HEK-Blue hTLR9 cells with TLR9 ligands. Therefore the reporter expression was declined by TLR9 antagonist under the stimulation of a ligand, such as ODN2006 (Cat. #: tlrl-2006-1, Invivogen, San Diego, Calif., USA), for incubation of 20 hrs. The cell culture supernatant SEAP reporter activity was determined using QUANTI-Blue™ kit (Cat. #: rep-qb1, Invivogen, San Diego, Calif., USA) at a wavelength of 640 nm, a detection medium that turns purple or blue in the presence of alkaline phosphatase.
HEK293-Blue-hTLR9 cells were incubated at a density of 250,000-450,000 cells/mL in a volume of 170 μL in a 96-well plate in Dulbecco's Modified Eagle's medium (DMEM) containing 4.5 g/L glucose, 50 U/mL penicillin, […], […], 2 mM L-glutamine, 10% (v/v) heat-inactivated fetal bovine serum with addition of 20 sL test compound in a serial dilution in the presence of final DMSO at 1% and 10 sL of 20 uM ODN2006 in above DMEM, perform incubation under 37° C. in a CO2 incubator for 20 hrs. Then 20 sL of the supernatant from each well was incubated with 180 μL Quanti-blue substrate solution at 37° C. for 2 hrs and the absorbance was read at 620-655 nm using a spectrophotometer. The signalling pathway that TLR9 activation leads to downstream NF-x3B activation has been widely accepted, and therefore similar reporter assay was modified for evaluating TLR9 antagonist.

Row | SMILES | pIC50
1 | CN1CCC(NC(=O)[C@@H]2CN(c3ccc(C#N)c4ncccc34)C[C@H]2C(F)F)CC1 (relative stereo) [Example 40, Trans-1-(8-cyano-5-quinolyl)-4-(difluoromethyl)-N-(1-methyl-4-piperidyl)pyrrolidine-3-carboxamide] | 5.16
2 | CC[C@@H]1CN(c2ccc(C#N)c3ncccc23)C[C@H]1C(=O)NC1CCN(C)CC1 (relative stereo) [Example 29, Trans-1-(8-cyano-5-quinolyl)-4-ethyl-N-(1-methyl-4-piperidyl)pyrrolidine-3-carboxamide] | 5.16
3 | O=C(NC1C2CCCC1CNC2)C1CN(c2ccc(C(F)(F)F)c3nccnc23)CC12CC2 (stereo not drawn) [Example 8, N-(3-azabicyclo[3.3.1]nonan-9-yl)-5-[8-(trifluoromethyl)quinoxalin-5-yl]-5-azaspiro[2.4]heptane-7-carboxamide] | 5.08
4 | O=C(NC1CC2CCCC(C1)N2)C1CN(c2ccc(C(F)(F)F)c3nccnc23)CC12CC2 (stereo not drawn) [Example 10, N-(9-azabicyclo[3.3.1]nonan-3-yl)-5-[8-(trifluoromethyl)quinoxalin-5-yl]-5-azaspiro[2.4]heptane-7-carboxamide] | 5.02
5 | C[C@H]1CN(c2ccc(C(F)(F)F)c3nccnc23)C[C@@H]1C(=O)NC1CCN(C)CC1 [Example 5, (3R,4R)-4-methyl-N-(1-methyl-4-piperidyl)-1-[8-(trifluoromethyl)quinoxalin-5-yl]pyrrolidine-3-carboxamide] | 4.98
6 | N#Cc1ccc(N2CC(C(=O)NC3CCCNCC3)C(C(F)(F)F)C2)c2cccnc12 (single isomer, unassigned) [Example 30A, N-(azepan-4-yl)-1-(8-cyano-5-quinolyl)-4-(trifluoromethyl)pyrrolidine-3-carboxamide] | 4.76
7 | CN1CCC(NC(=O)C2CN(c3ccc(C#N)c4nccnc34)CC23CC3)CC1 (single isomer, unassigned) [Example 7B, 5-(8-Cyanoquinoxalin-5-yl)-N-(1-methyl-4-piperidyl)-5-azaspiro[2.4]heptane-7-carboxamide] | 5.48
8 | C[C@H]1CN(c2ccc(C#N)c3nccnc23)C[C@@H]1C(=O)NC1CCN(C)CC1 [Example 3, (3R,4R)-1-(8-cyanoquinoxalin-5-yl)-4-methyl-N-(1-methyl-4-piperidyl)pyrrolidine-3-carboxamide] | 5.24
9 | NC1CC2(C1)CC(NC(=O)C1CN(c3ccc(C(F)(F)F)c4nccnc34)CC13CC3)C2 (stereo not drawn) [Example 22, N-(6-aminospiro[3.3]heptan-2-yl)-5-[8-(trifluoromethyl)quinoxalin-5-yl]-5-azaspiro[2.4]heptane-7-carboxamide] | 5.09
10 | O=C(NC1C2CCC1CNC2)C1CN(c2ccc(C(F)(F)F)c3nccnc23)CC12CC2 (stereo not drawn) [Example 12, N-(3-azabicyclo[3.2.1]octan-8-yl)-5-[8-(trifluoromethyl)quinoxalin-5-yl]-5-azaspiro[2.4]heptane-7-carboxamide] | 6.00
11 | CN1CCCC(CNC(=O)C2CN(c3ccc(C#N)c4ncccc34)CC23CC3)C1 (stereo not drawn) [Example 51, 5-(8-Cyano-5-quinolyl)-N-[(1-methyl-3-piperidyl)methyl]-5-azaspiro[2.4]heptane-7-carboxamide] | 5.70
12 | CN1CC(NC(=O)C2CN(c3ccc(C(F)(F)F)c4nccnc34)CC23CC3)C2(CC2)C1 (stereo not drawn) [Example 20, N-(5-methyl-5-azaspiro[2.4]heptan-7-yl)-5-[8-(trifluoromethyl)quinoxalin-5-yl]-5-azaspiro[2.4]heptane-7-carboxamide] | 4.88
13 | NC1CC(CNC(=O)C2CN(c3ccc(C(F)(F)F)c4nccnc34)CC23CC3)C1 (stereo not drawn) [Example 31, N-[(3-aminocyclobutyl)methyl]-5-[8-(trifluoromethyl)quinoxalin-5-yl]-5-azaspiro[2.4]heptane-7-carboxamide] | 5.03
14 | C[C@@H]1CN(c2ccc(C(F)(F)F)c3nccnc23)C[C@H]1C(=O)NC1CCN(C)CC1 [Example 25, (3S,4S)-4-Methyl-N-(1-methyl-4-piperidyl)-1-[8-(trifluoromethyl)quinoxalin-5-yl]pyrrolidine-3-carboxamide] | 4.86
15 | N#Cc1ccc(N2CC(C(=O)NCC3CNCCO3)C3(CC3)C2)c2nccnc12 (stereo not drawn) [Example 13, 5-(8-Cyanoquinoxalin-5-yl)-N-(morpholin-2-ylmethyl)-5-azaspiro[2.4]heptane-7-carboxamide] | 5.68
16 | CN1CCC(NC(=O)C2CN(c3ccc(C#N)c4ncccc34)CC23CC3)CC1 (single isomer, unassigned) [Example 41A, 5-(8-Cyano-5-quinolyl)-N-(1-methyl-4-piperidyl)-5-azaspiro[2.4]heptane-7-carboxamide] | 5.35
17 | CN1CCC(NC(=O)[C@@H]2CN(c3ccc(C#N)c4ncccc34)C[C@H]2C2CC2)CC1 (relative stereo) [Example 14, Trans-1-(8-cyano-5-quinolyl)-4-cyclopropyl-N-(1-methyl-4-piperidyl)pyrrolidine-3-carboxamide] | 5.35
18 | N[C@@H]1C[C@H](NC(=O)C2CN(c3ccc(C(F)(F)F)c4nccnc34)CC23CC3)[C@@H]2C[C@@H]21 (stereo partly drawn) [Example 36, N-[(1R,2S,4R,5S)-4-amino-2-bicyclo[3.1.0]hexanyl]-5-[8-(trifluoromethyl)quinoxalin-5-yl]-5-azaspiro[2.4]heptane-7-carboxamide] | 4.66
19 | C[C@H]1CN(c2ccc(C#N)n3nccc23)C[C@@H]1C(=O)NC1CCN(C)CC1 [Example 44, (3R,4R)-1-(7-cyanopyrazolo[1,5-a]pyridin-4-yl)-4-methyl-N-(1-methyl-4 piperidyl)pyrrolidine-3-carboxamide] | 5.04
20 | CN1CCC(NC(=O)[C@H]2CN(c3ccc(C(F)(F)F)c4nccnc34)C[C@@H]2C(F)(F)F)CC1 [Example 2, (3R,4R)—N-(1-methyl-4-piperidyl)-4-(trifluoromethyl)-1-[8-(trifluoromethyl)quinoxalin-5-yl]pyrrolidine-3-carboxamide] | 5.26
21 | C[C@H]1CN(c2ccc(C#N)c3ncccc23)C[C@@H]1C(=O)NC1CCN(C)CC1 [Example 16, (3R,4R)-1-(8-cyano-5-quinolyl)-4-methyl-N-(1-methyl-4-piperidyl)pyrrolidine-3-carboxamide] | 5.34
22 | C[C@H]1CN(c2ccc([N+](=O)[O-])c3ncccc23)C[C@@H]1C(=O)NC1CCN(C)CC1 [Example 27, (3R,4R)-4-Methyl-N-(1-methyl-4-piperidyl)-1-(8-nitro-5-quinolyl)pyrrolidine-3-carboxamide] | 5.35
23 | C[C@H]1CN(c2ccc(C#N)c3nccnc23)C[C@@H]1C(=O)NC1CCN(C2CCNCC2)CC1 [Example 60, (3R,4R)-1-(8-cyanoquinoxalin-5-yl)-4-methyl-N-[1-(4-piperidyl)-4-piperidyl]pyrrolidine-3-carboxamide] | 5.49
24 | CN1CCC(NC(=O)[C@H]2CN(c3ccc(C#N)c4nccnc34)C[C@@H]2C(F)(F)F)CC1 [Example 1, (3R,4R)-1-(8-cyanoquinoxalin-5-yl)-N-(1-methyl-4-piperidyl)-4-(trifluoromethyl) pyrrolidine-3-carboxamide] | 5.28
